Reference: PubChem BioAssay (NCI)
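Method: 48-hour compound exposure of cells in 96-well plates, five concentrations, linear interpolation of endpoints. Here, GI50 denotes the concentration required for 50% inhibition of growth. At the TGI there is no net growth.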

Experiments:
Test in all cases: NCI-60 cell line screen, 48 h
[1] = test system: ACHN renal
[2] = test system: SF-539 CNS
[3] = test system: CCRF-CEM leukemia
[4] = test system: 786-0 renal
[5] = test system: NCI-H23 lung
[6] = test system: UACC-62 melanoma
[7] = test system: K-562 leukemia
[8] = test system: NCI/ADR-RES ovarian
[9] = test system: OVCAR-4 ovarian
[10] = test system: SF-295 CNS
[11] = test system: OVCAR-3 ovarian
[12] = test system: HT29 colon
[13] = test system: NCI-H226 lung
[14] = test system: RXF 393 renal
[15] = test system: PC-3 prostate
[16] = test system: SW-620 colon
[17] = test system: KM12 colon
[18] = test system: IGROV1 ovarian
[19] = test system: MCF7 breast
[20] = test system: SR leukemia
[21] = test system: SN12C renal
[22] = test system: SF-268 CNS
[23] = test system: LOX IMVI melanoma
[24] = test system: CAKI-1 renal
[25] = test system: RPMI-8226 leukemia
[26] = test system: U251 CNS
[27] = test system: EKVX NSCLC
[28] = test system: SNB-19 CNS
[29] = test system: BT-549 breast
[30] = test system: MDA-MB-231 breast
[31] = test system: OVCAR-5 ovarian
[32] = test system: MOLT-4 leukemia
[33] = test system: HL-60(TB) leukemia
[34] = test system: HS 578T breast
[35] = test system: HOP-62 NSCLC
[36] = test system: SK-MEL-28 melanoma
[37] = test system: NCI-H460 lung
[38] = test system: SK-MEL-2 melanoma
[39] = test system: UACC-257 melanoma
[40] = test system: A498 renal
[41] = test system: A549 NSCLC
[42] = test system: COLO 205 colon
[43] = test system: SK-OV-3 ovarian
[44] = test system: NCI-H522 lung
[45] = test system: HCT-15 colon
[46] = test system: HCC-2998 colon
[47] = test system: SNB-75 CNS
[48] = test system: OVCAR-8 ovarian

CSc1ccc(N(C)c2nc(C)nc3c2CCC3)cc1
GI50 [1]: < 0.01 µM | TGI [1]: > 100 µM | GI50 [2]: < 0.01 µM | TGI [2]: < 0.01 µM | GI50 [3]: < 0.01 µM | TGI [3]: 94.7 µM | GI50 [4]: < 0.01 µM | TGI [4]: 50 µM | GI50 [5]: < 0.01 µM | TGI [5]: 33 µM | GI50 [6]: < 0.01 µM | TGI [6]: 25 µM | GI50 [7]: < 0.01 µM | TGI [7]: > 100 µM | GI50 [8]: < 0.01 µM | TGI [8]: 12.6 µM | GI50 [9]: < 0.01 µM | TGI [9]: > 100 µM | GI50 [10]: < 0.01 µM | TGI [10]: 12.2 µM | GI50 [11]: < 0.01 µM | TGI [11]: < 0.01 µM | GI50 [12]: < 0.01 µM | TGI [12]: 11.1 µM | GI50 [13]: < 0.01 µM | TGI [13]: > 100 µM | GI50 [14]: < 0.01 µM | TGI [14]: > 100 µM | GI50 [15]: < 0.01 µM | TGI [15]: 51.6 µM | GI50 [16]: < 0.01 µM | TGI [16]: > 100 µM | GI50 [17]: < 0.01 µM | TGI [17]: 12.9 µM | GI50 [18]: < 0.01 µM | TGI [18]: > 100 µM | GI50 [19]: < 0.01 µM | TGI [19]: > 100 µM | GI50 [20]: < 0.01 µM | TGI [20]: 11.6 µM | GI50 [21]: < 0.01 µM | TGI [21]: > 100 µM | GI50 [22]: < 0.01 µM | TGI [22]: 60.4 µM | GI50 [23]: < 0.01 µM | TGI [23]: 13.7 µM | GI50 [24]: < 0.01 µM | TGI [24]: > 100 µM | GI50 [25]: < 0.01 µM | TGI [25]: 25 µM | GI50 [26]: < 0.01 µM | TGI [26]: > 100 µM | GI50 [27]: < 0.01 µM | TGI [27]: 82 µM | GI50 [28]: < 0.01 µM | TGI [28]: > 100 µM | GI50 [29]: < 0.01 µM | TGI [29]: < 0.01 µM | GI50 [30]: < 0.01 µM | TGI [30]: 72.4 µM | GI50 [31]: 1.23 µM | TGI [31]: > 100 µM | GI50 [32]: < 0.01 µM | TGI [32]: 25.4 µM | GI50 [33]: < 0.01 µM | TGI [33]: < 0.01 µM | GI50 [34]: < 0.01 µM | TGI [34]: > 100 µM | GI50 [35]: < 0.01 µM | TGI [35]: 21.3 µM | GI50 [36]: 1.38 µM | TGI [36]: 36.6 µM | GI50 [37]: < 0.01 µM | TGI [37]: 19 µM | GI50 [38]: < 0.01 µM | TGI [38]: 38.8 µM | GI50 [39]: 11.6 µM | TGI [39]: 48.4 µM | GI50 [40]: < 0.01 µM | TGI [40]: < 0.01 µM | GI50 [41]: < 0.01 µM | TGI [41]: > 100 µM | GI50 [42]: < 0.01 µM | TGI [42]: < 0.01 µM | GI50 [43]: < 0.01 µM | TGI [43]: 16.1 µM | GI50 [44]: < 0.01 µM | TGI [44]: < 0.01 µM | GI50 [45]: < 0.01 µM | TGI [45]: > 100 µM | GI50 [46]: < 0.01 µM | TGI [46]: 10.8 µM | GI50 [47]: < 0.01 µM | TGI [47]: 42.1 µM | GI50 [48]: < 0.01 µM | TGI [48]: > 100 µM
